Experimental findings from patent publication US11952328B2, “Selective ship inhibitors for treating disease” (THE RESEARCH FOUNDATION FOR THE STATE UNIVERSITY OF NEW YORK, priority 2018, dated 2024) are described below.

For one test, the system named is T and NK cells. Description: Continuous dosing of patients with selective SHIP1 inhibitor. It is filed as in vivo. To be noted: administration periods of 3, 4, 5, 6, 7 or more days. The protocol: An effective dose of selective SHIP1 inhibitor (e.g. K223) is administered by any appropriate means (e.g., orally, intravenously, intraperitoneally) to a patient for administration periods of 3, 4, 5, 6, 7 or more days.

The next test deals with T1, SHIP1 (Homo sapiens, UniProt Q92835).
T1 sequence (Q92835 1-1189): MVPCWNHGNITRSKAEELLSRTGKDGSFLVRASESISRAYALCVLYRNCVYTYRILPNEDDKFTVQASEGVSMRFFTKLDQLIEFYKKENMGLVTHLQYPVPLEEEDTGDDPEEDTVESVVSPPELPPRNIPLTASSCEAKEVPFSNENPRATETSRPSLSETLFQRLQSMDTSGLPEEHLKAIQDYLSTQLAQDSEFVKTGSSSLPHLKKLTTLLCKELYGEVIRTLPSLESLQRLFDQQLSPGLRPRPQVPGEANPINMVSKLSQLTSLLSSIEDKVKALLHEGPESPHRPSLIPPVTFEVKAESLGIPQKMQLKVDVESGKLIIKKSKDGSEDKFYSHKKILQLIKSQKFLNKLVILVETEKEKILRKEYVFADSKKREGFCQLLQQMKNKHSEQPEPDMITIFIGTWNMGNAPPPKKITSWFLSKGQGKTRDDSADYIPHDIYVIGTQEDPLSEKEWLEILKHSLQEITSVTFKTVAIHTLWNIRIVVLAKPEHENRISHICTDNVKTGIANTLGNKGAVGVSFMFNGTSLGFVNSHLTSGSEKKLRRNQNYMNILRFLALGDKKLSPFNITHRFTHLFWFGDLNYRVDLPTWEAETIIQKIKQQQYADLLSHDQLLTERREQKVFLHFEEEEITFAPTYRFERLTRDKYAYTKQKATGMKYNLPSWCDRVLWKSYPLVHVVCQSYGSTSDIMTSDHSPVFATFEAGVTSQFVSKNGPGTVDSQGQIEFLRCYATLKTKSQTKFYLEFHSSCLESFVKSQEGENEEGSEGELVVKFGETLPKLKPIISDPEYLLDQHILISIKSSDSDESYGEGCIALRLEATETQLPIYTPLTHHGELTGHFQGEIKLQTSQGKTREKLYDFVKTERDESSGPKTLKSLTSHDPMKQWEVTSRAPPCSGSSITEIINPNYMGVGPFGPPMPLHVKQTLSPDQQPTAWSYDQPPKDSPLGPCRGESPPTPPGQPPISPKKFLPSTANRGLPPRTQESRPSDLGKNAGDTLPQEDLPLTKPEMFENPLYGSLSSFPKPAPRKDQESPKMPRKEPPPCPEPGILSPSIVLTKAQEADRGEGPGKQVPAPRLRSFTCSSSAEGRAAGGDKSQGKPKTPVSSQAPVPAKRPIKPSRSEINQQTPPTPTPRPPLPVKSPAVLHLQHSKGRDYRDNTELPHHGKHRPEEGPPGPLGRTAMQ
Description: Malachite Green phosphatase assay. It counts as biochemical. The note with it: at 1 nm and 500 μM. The source says:
FIGS. 2A-2C show the results of a SHIP1 malachite phosphatase assay. […] This predicts that the sulfonic acid is acting as a phosphate mimic, binding in active site where the 5′-phosphate of PIP3 binds.
K223 is an analog of EDANS, with the corresponding sulfonyl chloride of K223 being used as a donor for developing FRET-based nucleic acid probes and protease substrates. The docking pose of K223 with the model of the SHIP1 active site predicted that the sulfonic acid acts as a phosphate mimic, binding in the active site where the 5′-phosphate of PIP3 binds (FIG. 2B). The origin of the SHIP1 selectivity for K223 was not clear, however the nonpolar naphthalene core rests near K682 in the model of SHIP1, and this residue is a more polar arginine in SHIP2.

In the case of `NCCNc1cccc2cccc(S(=O)(=O)O)c12` [Compound K223, 8-((2-aminoethyl)amino)naphthalene-1-sulfonic acid], the “responsiveness of activated T and NK cells” value in the test with T and NK cells is reported as “hyporesponsiveness”. Moreover, the “inhibition of SHIP1” value at SHIP1 is “potent and selective inhibition of SHIP1”.
